{"source": "patent US20070207191A1", "about": "“PHARMACEUTICAL COMPOSITIONS AND METHODS TO ACHIEVE AND MAINTAIN A TARGETED AND STABLE COPPER STATUS AND PREVENT AND TREAT COPPER-RELATED CENTRAL NERVOUS SYSTEM DISEASES” (priority 2006, published 2007)", "key": {"[1]": {"test": "Dissolution of ATTM crystals of different size in acidic buffer (pH 2)", "assay_type": "physicochemical", "procedure": "After 1 hour of incubation in acidic buffer, more than 50% of ATTM was found.\n• 1. ATTM purchased from Sigma-Aldrich was sieved using a 1700 micron screen. […] ATTM crystals were ground so that no crystals were larger than 50 microns. These will be referred to as small crystals. • 3. 100 mg of each type of crystal was weighed and added to separate 1.7 ml plastic centrifuge tubes. • 4. 1 ml of buffer pH 2 was added to each tube without mixing. • 5. After 1 hour, each tube was centrifuged at 14,000 rpms for 1 minute. • 6. The supernatant was removed and analyzed for ATTM content. • 7. To the pellet of each tube was added 1 ml of phosphate buffer pH 7.4 • 8. Each solution was vortex-mixed. • 9. Each tube was centrifuged at 14,000 rpms for 1 min. • 10. The supernatant from each tube was analyzed for ATTM content. Analysis: • 1. A 1 to 100 dilution of all supernatants were made in phosphate buffer pH 7.4. • 2. 2 ml of each diluted sample were added to plastic cuvettes. • 3. Absorbance was measured at 467 nm. • 4. The extinction coefficients (EC) of ATTM for each sample were calculated.\nObservations: • 1. When acid buffer was added to small crystals of ATTM, the solution turned immediately black and a sulfur odor could be detected. • 2. […] This was observed by the 1 hour incubation time point. • 3. When acid buffer was added to large crystals of ATTM, a small amount of black coloration leached from the crystal. […] Conclusions: • 1. […] In acid, un-dissolved ATTM from large crystals can be liberated with a secondary dissolution in neutral media. • 5."}, "[2]": {"test": "Example 13: dissolution of ATTM capsule in artificial gastric fluid", "assay_type": "physicochemical", "procedure": "FIG. 1 is a plot of the dissolution profile of an ammonium tetrathromolybdate (ATTM) capsule in gastric juice in accordance with Example 13 hereof; and\nWe performed a dissolution experiment using a capsule containing 20 mg of ammonium tetrathiomolybdate plus excipient. ATTM crystals used were 500 microns or smaller. […] After, 3 hours of dissolution, black particles released from the capsule were found suspended in solution. After neutralization of the gastric media to pH 9, these black particles disappeared resulting in about 10% of ATTM being recovered.\n• 1. […] Conclusion: ˜90% of ATTM is destroyed in the stomach. Method: Material Studied • 1. Study was performed on R&D Pipex formulated capsule of ATTM. • 2. The ATTM was milled through a 500 micron sieve. • 3. The capsule contained ˜20 mg of ATTM and 180 mg of excipient. Dissolution Conditions • 1. Media: 1 liter of UPS artificial gastric fluid pH 2 • 2. Temp: 22° C. • 3. Paddle RPMs: 100 • 4. Dissolution time: 3 hours Procedure • 1. A #2 QualiCaps capsule available from Shionogi Europe, B.V. was mechanically dropped into media at time zero • 2. 1 ml of media was then collected at 1, 2, 4, 8, 16, 30, 45, 75, 120 and 180 min • 3. Following 3 hours of dissolution, the pH was raised to 9 using NaOH pellets. • 4. The media was paddled for 1 hour. • 5. After 1 hour a sample was collect for analysis Analysis • 1. 400 ul of collected media was diluted to 2 ml with phosphate buffer, pH 7 • 2. The solution was placed in a cuvette and scanned between 260 and 600 nm. • 3. Absorbance was measured at 367 nm. • 4. The extinction coefficient was calculated using Beer's law. • 5. The extinction coefficient of a reference sample in a capsule is 13500 cm^−1 M^−1 Conclusion: • 1. Any ATTM that dissolves in media at pH 2 is immediately destroyed. • 2. Some of the ATTM floated in the media as black specks following 3 hours of dissolution. • 3. After three hours when the pH of the solution was raised to pH 9, the color of the solution changed to an orange color. • 4. This presumably is stable ATTM that has dissolved. • 5. […]"}, "[3]": {"test": "Example 14: stability of ATTM capsules after eight weeks", "assay_type": "physicochemical", "conditions": "stored at RT and ambient RH"}, "[4]": {"conditions": "infants at one month of age, supplemented 80 μg Cu/kg daily for 15 days; cited from earlier work"}, "free copper in the CNS": {"system": "free copper in the CNS", "conditions": "in vivo"}, "neural tube defects": {"system": "neural tube defects", "conditions": "adequate intake by mothers prior to pregnancy; cited from earlier work"}, "[5]": {"system": "intestinal absorption of copper", "conditions": "cited from earlier work"}, "[6]": {"test": "Example 6: colour stability of crushed versus lyophilized tetrathiomolybdate", "assay_type": "physicochemical", "source_text": "Tetrathiothiomolybdate crystals are either crushed to a powder, that is initially orange in color, or placed in water to dissolve yielding a bright orange solution, which is filtered and lyophilized, which results in a dry powder orange in color."}, "[7]": {"test": "Example 5: tetrathiomolybdate crystals and capsule in simulated stomach acid", "assay_type": "physicochemical", "procedure": "Large (>1000 microns) and small (<50 microns) dark orange crystals of tetrathiomolybdate are placed in a solution of a commercially available simulated stomach acid. […] The dissolution properties of the large verses small crystals are clearly distinct. To further examine the properties of a methylcellulose capsule containing 20 mg of tetrathiomolybdate and 180 mg of excipient containing a heterogenous size range (200-800 microns) of tetrathiomolybdate crystals was examined in a dissolution chamber initially containing simulated stomach acid. The gelatin capsule dissolved within 15 minutes. Tetrathiothiomolybdate recovery was assessed by UV/Visible absorption periodically over 3 hours, a time consistent with the initiation of gastric emptying and the initial phase of postprandial absorption. […] At three hours the remaining gastric juice was made alkaline by adjusting the pH to 8-9, the solution turned orange to red and was assessed by UV/V is spectroscopy to determine the recover of tetrathiothiomolybdate, which was approximately 7% of the amount in the capsule.\nWhen the same experiment is performed with small crystals, much less than 7% of parent compound is recovered, while when the experiment is performed with large crystals much greater than 7% of parent compound is recovered."}, "[8]": {"test": "Storage stability of tetrathiomolybdate under typical atmospheric temperature and humidity", "assay_type": "physicochemical", "conditions": "within three months", "source_text": "Tetrathiohiomolydates, under typical atmospheric condition of temperature and humidity are unstable and the active ingredient can undergo oxidation to molybdenum sulfoxide. Molydbdenum sulfoxide is not active as a copper binding agent and therapeutic agent for reduing body copper levels in humans. Tetrathiomolybdates can be expected to lose approximately 10% of its potency within three months if stored under such conditions."}, "[9]": {"conditions": "current formulations; cited from earlier work"}, "[10]": {"conditions": "oral dose of Cu^64 as copper acetate, humans; cited from earlier work"}, "[11]": {"conditions": "crystals 1700 microns or greater"}, "[12]": {"conditions": "pellet taken up in phosphate buffer pH 7.4"}, "[13]": {"conditions": "pellet taken up in phosphate buffer pH 7.4, 1 to 100 dilution"}, "[14]": {"conditions": "supernatant after 1 hour in buffer pH 2"}, "[15]": {"conditions": "supernatant after 1 hour in buffer pH 2, 1 to 100 dilution"}, "[16]": {"conditions": "50 mg immediate release capsules three times per day away from meals and beverages, Wilson's disease patients"}}, "note": "“Also recorded” adds a separate entry of the source."}
{"molecule": "[NH4+].[NH4+].[SH-].[SH-].[S]=[Mo]=[S]", "note": "[ATTM, ammonium tetrathiomolybdate]", "values": [{"measurement": "survival of dissolved ATTM in acid media", "setting": "[1]", "value": "does not survive in acid media"}, {"measurement": "ATTM found after 1 hour of incubation in acidic buffer", "setting": "[1]; crystals 50 microns or less", "value": "no ATTM was found"}, {"measurement": "dissolution behaviour in acidic buffer (pH 2)", "setting": "[1]; crystals 50 microns or less", "value": "dissolved rapidly; also recorded: dissolves in Acid media but soon forms an insoluble precipitate"}, {"measurement": "ATTM found after 1 hour of incubation in acidic buffer", "setting": "[1]; [11]", "value": "more than 50%"}, {"measurement": "dissolution behaviour in acidic buffer (pH 2)", "setting": "[1]; [11]", "value": "dissolved slowly; also recorded: forms a black coating which seems to resist dissolution"}, {"measurement": "ATTM recovered after neutralization of the gastric media to pH 9", "setting": "[2]; after 3 hours of dissolution", "value": "about 10%"}, {"measurement": "ATTM destroyed", "setting": "[2]; artificial gastric fluid over three hours", "value": "~90", "unit": "%"}, {"measurement": "ATTM recovered dissolved in the gastric dissolution medium", "setting": "[2]; artificial gastric fluid pH 2, 22° C., up to 3 hours, crystals 500 microns or smaller", "value": "No ATTM was recovered; also recorded: No ATTM was found dissolved"}, {"measurement": "stability after 8-Weeks", "setting": "[3]", "value": "completely stable"}]}
{"molecule": "[NH4+].[NH4+].[SH-].[SH-].[S]=[Mo]=[S]", "note": "[Large Crystal, ammonium tetrathiomolybdate]", "values": [{"measurement": "Extinction Coefficient", "setting": "[1]; [12]", "value": "7,000"}, {"measurement": "Absorbance at 467", "setting": "[1]; [13]", "value": 0.310}, {"measurement": "Extinction Coefficient", "setting": "[1]; [14]", "value": 0}, {"measurement": "Absorbance at 467", "setting": "[1]; [15]", "value": 0}]}
{"molecule": "[NH4+].[NH4+].[SH-].[SH-].[S]=[Mo]=[S]", "note": "[Small Crystal, ammonium tetrathiomolybdate]", "values": [{"measurement": "Extinction Coefficient", "setting": "[1]; [12]", "value": 0}, {"measurement": "Absorbance at 467", "setting": "[1]; [13]", "value": 0}, {"measurement": "Extinction Coefficient", "setting": "[1]; [14]", "value": 0}, {"measurement": "Absorbance at 467", "setting": "[1]; [15]", "value": 0}]}
{"molecule": "O=S(=O)([O-])[O-].[Cu+2]", "note": "[copper sulfate]", "values": [{"measurement": "Mean (+SD) copper absorption", "setting": "[4]", "value": "74.8+15.2%"}]}
{"molecule": "CC(C)(S)[C@@H](N)C(=O)O", "note": "[d-pencillamine, d-penicillamine]", "values": [{"measurement": "levels of free copper in the CNS", "setting": "free copper in the CNS", "value": "increase the levels of free copper in the CNS"}]}
{"molecule": "Nc1nc2ncc(CNc3ccc(C(=O)N[C@@H](CCC(=O)O)C(=O)O)cc3)nc2c(=O)[nH]1", "note": "[folic acid]", "values": [{"measurement": "reduction of the incidence of NTDs", "setting": "neural tube defects", "value": "up to 70%"}]}
{"molecule": "[SH-].[SH-].[S]=[Mo]=[S]", "note": "[tetrathiomolybdate]", "values": [{"measurement": "blocking of copper absorption compared with zinc", "setting": "[5]; human, in vivo", "value": "more effective blocker of copper absorption than zinc"}, {"measurement": "colour stability", "setting": "[6]; crushed crystals, nitrogen overlay, room temperature, closed tube", "value": "slowly turn black within a few day"}, {"measurement": "colour stability", "setting": "[6]; lyophilized dry powder, similar conditions", "value": "remains orange for over a month"}, {"measurement": "colour stability", "setting": "[6]; protected from atmosphere and moisture by covering with mineral", "value": "remains orange (i.e. not oxidized) for over a month"}, {"measurement": "detection in simulated gastric samples, removed and neutralized", "setting": "[7]; any time point over three hours, UV/Visible absorption", "value": "not detectable"}, {"measurement": "capsule dissolution time", "setting": "[7]; capsule with 20 mg tetrathiomolybdate and 180 mg excipient, simulated stomach acid", "value": "≤ 15", "unit": "min"}, {"measurement": "behaviour in simulated stomach acid", "setting": "[7]; large (>1000 microns) crystals", "value": "remain relatively intact"}, {"measurement": "behaviour in simulated stomach acid", "setting": "[7]; small (<50 microns) crystals", "value": "form a disaggregate cloudy black solution"}, {"measurement": "loss of potency", "setting": "[8]", "value": "approximately 10%"}]}
{"molecule": "NCCNCCNCCN", "note": "[trientine]", "values": [{"measurement": "levels of free copper in the CNS", "setting": "free copper in the CNS", "value": "increase the levels of free copper in the CNS"}]}
{"molecule": "CC(=O)[O-].CC(=O)[O-].[Zn+2]", "note": "[zinc acetate]", "values": [{"measurement": "mean Cu^64 uptake", "setting": "[5]; [16]", "value": "0.82 % of the administered dose"}, {"measurement": "mean copper balance", "setting": "[5]; [16]", "value": -0.44, "unit": "mg/day"}, {"measurement": "control of copper", "setting": "[5]; once daily dosing of immediate release capsules", "value": "does not provide adequate control of copper"}, {"measurement": "stomach irritability", "setting": "[9]", "value": "~10 % of patients"}]}
{"molecule": "[Zn]", "note": "[zinc]", "values": [{"measurement": "copper balance induced, average", "setting": "[5]; Wilson's patients, from the two week point", "value": "−0.35", "unit": "mg daily"}, {"measurement": "time to achieve intestinal metallothionein induction and a negative copper balance", "setting": "[5]; Wilson's patients", "value": "approximately two"}, {"measurement": "time to bring urine copper and nonceruloplasmin plasma copper down to subtoxic levels", "setting": "[5]; zinc therapy", "value": "six"}]}
{"molecule": "copper acetate", "values": [{"measurement": "oral dose absorbed from the gastrointestinal tract", "setting": "[10]", "value": "about 65%"}, {"measurement": "oral dose absorbed from the gastrointestinal tract, range", "setting": "[10]", "value": "15-97%"}]}
